Results reported in patent US20120277281A1, “POLYNUCLEOTIDES FOR MEDICAL USE” (MAX-DELBRÜCK-CENTRUM FÜR MOLEKULARE MEDIZIN, priority 2009, published 2012).

Key:
Format in all cases: cell-based, human
[1] = tested on: canonical and non-canonical CSF1R transcripts; assay: RT-PCR of canonical and non-canonical CSF1R transcripts in Reh and Namalwa cells; details: single agent
Method: FIG. 7. Analysis of CSF1R LTR DNA methylation and CBFA2T3 expression. Expression of the transcriptional corepressor CBFA2T3 is lost in HRS cells. (A) Activation of the non-canonical CSF1R transcripts following treatment with TSA and/or 5-aza-dC. The non-HRS cell lines Reh and Namalwa were left untreated or treated with 5-aza-dC, TSA, or 5-aza-dC in combination with TSA. The expression of canonical and non-canonical CSF1R transcripts was analyzed by RT-PCR. The analysis of KM-H2 cells and of GAPDH expression were used as controls. (7A) Analysis of canonical and noncanonical CSF1R transcripts following treatment of Reh and Namalwa cells with TSA and/or 5-aza-dC. […] The expression of both canonical (+720 to +1,325) and noncanonical (−5,090 to +148 and −6152 to −143) CSF1R transcripts was analyzed by RT-PCR. […] GAPDH expression was analyzed as a control. […] (B) Various cell lines and primary CD19^+ human tonsilar B cells were analyzed for expression of CBFA2T3 mRNA by RT-PCR (upper panel) and protein by Western blotting (WB; lower panel) expression. […] Expression of GAPDH and β-actin were analyzed as controls. […] GAPDH and beta-actin expression were analyzed as controls. n.s., non-specific. […] Schematic overview of the regions analyzed for DNA methylation (upper panel) and results of bisulfite pyrosequencing in lymphoma/leukemia cell lines and controls (lower panel). […]

CSF1R = assay: rhCSF1-induced CSF1R tyrosine phosphorylation in DEL cells (IP, immunoblot); details: preincubation with CSF1R:Fc
Method: FIG. 9. (A) Analysis of CSF1 mRNA expression by Northern blot in various cell lines, as indicated. Expression of GAPDH was analyzed as a control. Note, that Hodgkin cell lines overexpress two splice variants compared to control cell lines Reh, Namalwa and BL60, which lack CSF1 expression. (B) To test the functionality of the decoy-receptor-like CSF1R:Fc inhibitor, anaplastic large cell lymphoma derived DEL cells, which show an abundant CSF1R expression (Mathas, S. et al., PNAS 106, 5831-5836 (2009)), were left untreated or stimulated with rhCSF1 with or without preincubation with CSF1R:Fc or the respective IgG1:Fc control. Thereafter, IP was performed with a CSF1R-specific antibody or the respective isotype control (IC), and CSF1R tyrosine phosphorylation was detected by immunoblot with antibody to phospho-tyrosine (p-Tyr; upper panel). As a control, the membrane was reprobed with antibody to CSF1R (lower panel). Note, that CSF1R:Fc prevents rhCSF-1 induced CSF1R phosphorylation.

KM-H2 cells = assay: [3H]-thymidine incorporation in KM-H2 cells after CSF-1 inhibition; details: 80 μg/ml, pulsed after 24 h
Method: FIG. 3. HRS cells depend on CSF1R activity. (A) L540Cy cells were left untreated (−) or treated with the indicated amounts rhCSF-1 (closed bars) or the respective control (open bars) under serum reduced conditions (1% FCS). After 48 hours, cells were pulsed with 1 μCi [^3H]-thymidine per well for a further 20 hours, and [^3H]-thymidine incorporation was determined cpm, counts per minute. Data are represented as mean±SD. (3A) [^3H]-thymidine incorporation in L540Cy cells left untreated (−) or treated with the indicated amounts of rhCSF-1 (black bars) or water control (open bars) under serum-reduced conditions (1% FCS) determined after 48 h. Data are represented as means±s.d. […] After 24 hours, cells were pulsed with [^3H]-thymidine incorporation and analyzed as described in (A). […] CSF1R tyrosine phosphorylation was analyzed as described in FIG. 1F. […]
DNA synthesis was determined by [^3H]-thymidine incorporation assays using standard protocols. The percentage of viable and apoptotic cells was determined by annexin V-FITC/propidium iodide (PI) double-staining (Bender MedSystems) and subsequent FACS analysis.
We determined DNA synthesis by [^3H]-thymidine incorporation assays using standard protocols. In case of L540Cy cells (FIG. 1d), after 48 hours, cells were pulsed with 1 μCi [^3H]-thymidine per well for a further 20 hours, and [^3H]-thymidine incorporation was determined. […]

| Compound | induction of canonical and non-canonical CSF1R transcripts [1] | rhCSF-1 induced CSF1R phosphorylation (CSF1R) | [3H]-thymidine incorporation (KM-H2 cells) |
| --- | --- | --- | --- |
| CC(/C=C/C(=O)NO)=C\[C@@H](C)C(=O)c1ccc(N(C)C)cc1 [TSA, Trichostatin A] | weakly induced | – | – |
| CSF1R:Fc: decoy-receptor-like inhibitor that binds to and neutralizes CSF-1 (329-MR, R&D Systems) | – | prevents | strong reduction |
| Nc1ncn([C@H]2C[C@H](O)[C@@H](CO)O2)c(=O)n1 [Compound 5-aza-dC, 5-aza-2′-deoxycytidine] | weakly induced | – | – |
